Where “and” joins values, the source holds several entries; their conditions need not be identical. Equal values may be shown once.
Tests used:
[1] = RP-HPLC for related substances of zidovudine (Ph. Eur. 9.5) after lyophilisation; assay type: physicochemical; conditions: aqueous lyo solution
Experimental: RP-HPLC chromatography for quantity and purity of zidovudine was performed according to monograph Ph. Eur. 9.5 (January 2017:1059). The following chromatographic conditions were used for the analysis.
• XTerra RP18 VanGuard cartridge, 3.9×5 mm, 5 μm Mobile phase A 2 g/L ammonium acetate, pH 6.8 Mobile phase B Acetonitrile
Mobile phase A was prepared by dissolving 2 g ammonium acetate in 800 mL of purified water, pH was adjusted to 6.8 with acetic acid. The solution was made up to 1 L with purified water.
Diluent was prepared by mixing 76 mL mobile phase A with 4 mL of ACN and 20 mL methanol.
Reference solution A: 2 mg of impurity C and 2 mg of impurity B were dissolved in 50 mL diluent. 1 mL of this solution was diluted with 19 mL diluent.

[2] = buffered aqueous system
Experimental: A two component buffer system consisting of acetate and phosphate (5 mM acetate and 5 mM phosphate) was used to cover a pH range of about 4.5 to 7.5. After complete dissolution of the solid, the pH was adjusted to the desired pH value using hydrochloric acid.

[3] = Solubility screening in organic solvent system (tert-butanol/water)
Experimental: Substances were dissolved in an appropriate volume to justify the use of an organic solvent based system (reduction of the fill volume per vial by a factor of 4, ˜5 mL fill volume in organic solvent based systems). Samples were tested for stability of the APIs in solution when stored for 24 h at 2 to 8° C. and 25° C. […] The chromatographic conditions were the same as set out above for Example 1A.

[4] = tested on: sensitive micro-organisms; conditions: cited from earlier work; for Potency: general value of the art
[5] = Determination of free colistin (turbidity) according to European Pharmacopeia 9.5; assay type: physicochemical; conditions: free colistin assay
Experimental: Determination of free colistin was performed according to European Pharmacopeia 9.5 (July 2017:0319).
1.0 g of hydrazine sulfate was dissolved in purified water, diluted to 100.0 mL with the same solvent and allowed to stand for 4-6 h.
2.5 g of hexamethylene tetramine was dissolved in 25.0 mL purified water in a 100 mL glass-stoppered volumetric flask.
25.0 mL hydrazine sulfate solution was added to the hexamethylene tetramine solution in the volumetric flask, mixed and allowed to stand for 24 h.
15.0 mL of the primary opalescent suspension was diluted to 1000.0 mL with purified water. This suspension was freshly prepared and stored for a maximum of 24 h.
Reference suspensions according to Table 6 were prepared for calibration of the turbidity meter.
One lyophilisate containing 240 mg CMS was dissolved in 10 mL purified water. CMS BDS was analyzed by dissolving 80 mg of CMS BDS in 3 mL purified water. After complete dissolution, 0.1 mL […] silicotungstic acid was added to 3 mL of the test sample (either reconstituted lyophilisate or dissolved BDS). The turbidity of the sample was recorded after 10 s-20 s.
Determination of free colistin was performed according to European Pharmacopeia 9.5 (July 2017:0319). The hydrazine sulfate solution, hexamethylene tetramine solution, primary opalescent suspension, standard of opalescence, and reference suspensions were prepared as in Example 2. […]

[6] = aqueous solutions; Wallace et al. 2010; cited from earlier work

Compound: Cc1cn([C@H]2C[C@H](N=[N+]=[N-])[C@@H](CO)O2)c(=O)[nH]c1=O [Zidovudine]
- Stability of zidovudine during the lyophilisation process [1]: stable during the lyophilisation process

Compound: colistimethate sodium [CMS]
- Effect on pH of the solution / buffer capacity [2]: strong buffer capacity at neutral to slightly basic pH values
- Solubility in TBA/water, all TBA concentrations [3]: soluble in all TBA concentrations
- Dissolution time in TBA/water ([3]; 20% to 60% (w/w) TBA, 5 mL): within a few minutes
- Potency [4]: around 12,500 IU/mg
- Acceptance criteria/not more turbid than standard of opalescence II ([5]; Table 8 (Example 2)): yes
- Turbidity ([5]; Table 8, organic solvent system lyophilisation (Example 2)): 5.5 NTU
- Concentration in aqueous solution above which CMS is stable against hydrolysis due to the formation of micelles [6]: above 3.5 mM and ~5.7 mg/mL

Compound: colistin sulfate
- Potency [4]: around 20,500 IU/mg

Compound: polymyxin B
- International Units equivalent to 1 mg ([4]; generally accepted in the art): approximately 10,000 IU

From patent US12594319B2, “Pharmaceutical development” (HELPERBY THERAPEUTICS LIMITED, priority 2019, dated 2026)
